Measured values from patent US20240383905A1, “FGFR INHIBITORS AND METHODS OF USE THEREOF” (3H PHARMACEUTICALS CO., LTD., priority 2021, published 2024).

What was measured:
[1] = Pharmacokinetics in SD Rat; type: in vivo, Sprague-Dawley (SD) rat; details: Sprague-Dawley, male SD rat, plasma; for clearance: IV 3 mg/kg; for AUC(0-inf) / half-life / Cmax: PO 15 mg/kg (IV used for Clearance); for Cmax: read-out: Cmax
Description: Animal studies were done as approved protocols by the Institutional Animal Care and Use Committee at INVIVO Biotech Co., Ltd.
Animal information: Sprague-Dawley (SD) rat, SPF, 6-8 weeks, Male, weight 200-250 g, purchased from Beijing Vital River Lab (Beijing, People's Republic of China).
Formulation: Prepare 1.5 mg/ml and 0.6 mg/ml compound solution in […](20% HPβCD) for PO and IV respectively, dosing immediately after preparation.
Administration: PO and IV;

SNU16 cells = test: SNU16 Cancer Cell Line Proliferation Assay (CellTiter-Glo); type: cell-based; details: Homo sapiens, SNU-16, 72 h
Summary of the method: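 SNU16 cells at 5000/well exposed to 9-point 3-fold serial compound dilutions (DMSO control) for 72 h at 37 °C, 5% CO2. Viability read by luminescence; IC50 calculated from dose-response.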

FGFR2 = molecular target: T1, FGFR2 (Homo sapiens, UniProt P21802); test: FGFR2 Biochemical Caliper Assay (KinEASE-TK kit); details: 0.07 nM FGFR2; compound incubated with protein 10 min, reaction 45 min at RT; read-out: FGFR2 Cliper IC50
T1 construct: purchased Carna 08-134
T1 sequence (P21802 22-821): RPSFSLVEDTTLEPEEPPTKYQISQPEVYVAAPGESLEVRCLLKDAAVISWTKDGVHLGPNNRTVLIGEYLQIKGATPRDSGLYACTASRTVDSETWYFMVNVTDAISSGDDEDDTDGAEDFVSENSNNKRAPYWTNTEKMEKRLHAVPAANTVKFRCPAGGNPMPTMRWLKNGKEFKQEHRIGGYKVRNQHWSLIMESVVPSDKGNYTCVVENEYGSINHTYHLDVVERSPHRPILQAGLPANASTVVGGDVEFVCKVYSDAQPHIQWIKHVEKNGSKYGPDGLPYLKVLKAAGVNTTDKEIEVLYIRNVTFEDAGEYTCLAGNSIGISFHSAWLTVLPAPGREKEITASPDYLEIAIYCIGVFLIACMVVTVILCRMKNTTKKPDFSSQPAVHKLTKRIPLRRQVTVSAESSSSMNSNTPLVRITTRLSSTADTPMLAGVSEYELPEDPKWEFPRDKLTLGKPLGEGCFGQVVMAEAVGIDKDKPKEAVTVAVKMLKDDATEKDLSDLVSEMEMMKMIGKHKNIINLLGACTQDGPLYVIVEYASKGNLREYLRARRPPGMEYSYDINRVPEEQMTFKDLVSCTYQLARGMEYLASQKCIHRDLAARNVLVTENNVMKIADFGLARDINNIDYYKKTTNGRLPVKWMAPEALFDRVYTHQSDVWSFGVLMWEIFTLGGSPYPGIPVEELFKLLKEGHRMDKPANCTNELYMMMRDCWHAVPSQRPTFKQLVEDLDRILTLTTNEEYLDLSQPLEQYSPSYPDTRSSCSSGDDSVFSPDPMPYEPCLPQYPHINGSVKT

FGFR1 = molecular target: T2, FGFR1 (Homo sapiens, UniProt P11362); test: FGFR1 Biochemical Caliper Assay (KinEASE-TK kit); details: ratio FGFR1/FGFR2 of the biochemical assay
T2 construct: purchased Carna 08-133
T2 sequence (P11362 22-822): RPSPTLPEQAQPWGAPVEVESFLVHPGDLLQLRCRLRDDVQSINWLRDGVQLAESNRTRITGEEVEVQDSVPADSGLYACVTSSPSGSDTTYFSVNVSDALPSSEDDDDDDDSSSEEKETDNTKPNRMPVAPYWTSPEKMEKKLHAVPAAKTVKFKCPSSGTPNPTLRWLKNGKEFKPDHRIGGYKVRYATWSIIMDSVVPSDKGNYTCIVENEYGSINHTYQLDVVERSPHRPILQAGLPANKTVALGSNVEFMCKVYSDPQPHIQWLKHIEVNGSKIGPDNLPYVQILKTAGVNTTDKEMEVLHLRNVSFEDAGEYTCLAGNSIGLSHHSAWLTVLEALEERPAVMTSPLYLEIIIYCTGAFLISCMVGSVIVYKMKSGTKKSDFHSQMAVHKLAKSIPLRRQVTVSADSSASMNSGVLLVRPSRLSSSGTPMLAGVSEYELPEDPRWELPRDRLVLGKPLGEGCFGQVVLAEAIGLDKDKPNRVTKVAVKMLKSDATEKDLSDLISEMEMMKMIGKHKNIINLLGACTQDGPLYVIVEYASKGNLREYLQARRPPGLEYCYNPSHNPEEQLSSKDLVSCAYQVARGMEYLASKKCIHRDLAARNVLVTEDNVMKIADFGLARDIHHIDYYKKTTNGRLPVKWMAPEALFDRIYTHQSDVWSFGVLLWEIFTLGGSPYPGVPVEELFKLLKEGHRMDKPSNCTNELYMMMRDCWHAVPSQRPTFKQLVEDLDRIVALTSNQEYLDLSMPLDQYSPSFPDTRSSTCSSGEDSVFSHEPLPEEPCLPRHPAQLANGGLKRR
Summary of the method: (§1)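 KinEASE-TK HTRF readout: enzyme at 0.2 nM (FGFR1, FGFR3) preincubated 10 min at RT with 10-point 3-fold compound dilutions before TK-substrate/ATP start.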

FGFR3 = molecular target: T3, FGFR3 (Homo sapiens, UniProt P22607); test: FGFR3 Biochemical Caliper Assay (KinEASE-TK kit); details: ratio FGFR3/FGFR2 of the biochemical assay
T3 construct: purchased Carna 08-135
T3 sequence (P22607 23-806): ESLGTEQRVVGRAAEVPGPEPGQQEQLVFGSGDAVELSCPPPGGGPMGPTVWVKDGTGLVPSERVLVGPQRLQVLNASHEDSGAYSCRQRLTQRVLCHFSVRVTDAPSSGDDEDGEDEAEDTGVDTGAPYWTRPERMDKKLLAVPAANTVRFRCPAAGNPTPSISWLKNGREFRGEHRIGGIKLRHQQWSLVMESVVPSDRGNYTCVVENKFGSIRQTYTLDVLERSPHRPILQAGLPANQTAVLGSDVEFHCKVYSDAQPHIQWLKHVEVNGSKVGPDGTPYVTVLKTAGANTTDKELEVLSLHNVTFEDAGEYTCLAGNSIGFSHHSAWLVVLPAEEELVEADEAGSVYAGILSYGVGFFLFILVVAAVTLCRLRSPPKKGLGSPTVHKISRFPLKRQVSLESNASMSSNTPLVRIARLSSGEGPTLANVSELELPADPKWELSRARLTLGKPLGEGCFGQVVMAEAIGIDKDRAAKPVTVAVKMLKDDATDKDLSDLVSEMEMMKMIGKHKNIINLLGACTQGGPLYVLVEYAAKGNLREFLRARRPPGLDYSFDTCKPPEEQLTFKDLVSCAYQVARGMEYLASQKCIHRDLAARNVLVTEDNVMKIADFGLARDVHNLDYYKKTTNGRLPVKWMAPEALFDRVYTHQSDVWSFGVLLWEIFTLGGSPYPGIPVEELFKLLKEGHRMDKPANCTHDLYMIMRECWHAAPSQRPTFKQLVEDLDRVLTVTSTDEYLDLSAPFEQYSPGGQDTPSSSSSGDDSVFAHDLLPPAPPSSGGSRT
Summary of the method: as §1

clearance [1] [mL/min/kg] | AUC(0-inf) [1] [ng·h/mL] | half-life [1] [h] | Cmax [1] [ng/mL] | IC50 (SNU16 cells) [nM] | IC50 (FGFR2) [nM] | SMILES | Selectivity FGFR1/FGFR2 (FGFR1) | Selectivity FGFR3/FGFR2 (FGFR3)
19 | 1240 | 0.98 | 509 | ≤ 10 | < 5 | C=CC(=O)Nc1ccc(-c2c(-c3ccc(C(=O)NCC(F)(F)F)c(OC)c3)c3c(N)ncc(C#N)c3n2C)cc1 [Compound 28, 4-(2-(4-acrylamidophenyl)-4-amino-7-cyano-1-methyl-1H-pyrrolo[3,2-c]pyridin-3-yl)-2-methoxy-N-(2,2,2-trifluoroethyl)benzamide] | A (Selectivity of FGFR1/FGFR2 less than 500 but greater than or equal to 300) | B (Selectivity of FGFR3/FGFR2 less than 100 but greater than or equal to 25)
3.1 | 2700 | 6 | 621 | ≤ 10 | < 5 | C=C(F)C(=O)Nc1ccc(-c2c(-c3ccc(C(=O)NCC(F)(F)F)c(OC)c3)c3c(N)ncc(C#N)c3n2C)cc1 [Compound 96, 4-(4-amino-7-cyano-2-(4-(2-fluoroacrylamido)phenyl)-1-methyl-1H-pyrrolo[3,2-c]pyridine-3-yl)-2-methoxy-N-(2,2,2-trifluoroethyl)benzamide] | A+ (Selectivity of FGFR1/FGFR2 greater or equal to 500) | A+ (Selectivity of FGFR3/FGFR2 greater or equal to 150)
26 | 1550 | 3 | 507 | ≤ 10 | > 10 | C=C(F)C(=O)Nc1ccc(-c2nn3ncnc(N)c3c2-c2ccc(C(=O)NC3CC(F)C3)c(OC)c2)cc1 (stereo not drawn) [Compound 185, 4-(4-amino-6-(4-(2-fluoroacrylamido)phe-nyl)pyrazolo[5,1-f][1,2,4]triazin-5-yl)-N-(3-fluorocyclobutyl)-2-methoxybenzamide] | A+ (Selectivity of FGFR1/FGFR2 greater or equal to 500) | A+ (Selectivity of FGFR3/FGFR2 greater or equal to 150)
8.4 | 4570 | 3.6 | 1390 | ≤ 10 | 5 to 10 | C=C(F)C(=O)Nc1ccc(-c2nn3ncnc(N)c3c2-c2ccc(C(=O)NC3CC3(F)F)c(OC)c2)cc1 (stereo not drawn) [Compound 193, 4-(4-amino-6-(4-(2-fluoroacrylamido)phe-nyl)pyrazolo[5,1-f][1,2,4]triazin-5-yl)-N-(2,2-difluorocyclopropyl)-2-methoxybenzamide] | A+ (Selectivity of FGFR1/FGFR2 greater or equal to 500) | A+ (Selectivity of FGFR3/FGFR2 greater or equal to 150)
5.4 | 2070 | 1.3 | 442 | ≤ 10 | < 5 | C=C(F)C(=O)Nc1ccc(-c2[nH]c3c(C#N)cnc(N)c3c2-c2ccc(C(=O)NC3CC3)c(OC)c2)cc1 [Compound 235, 4-(4-amino-7-cyano-2-(4-(2-fluoroacrylamido)phe-nyl)-1H-pyrrolo[3,2-c]pyridin-3-yl)-N-cyclopropyl-2-methoxybenzamide] | A+ (Selectivity of FGFR1/FGFR2 greater or equal to 500) | A+ (Selectivity of FGFR3/FGFR2 greater or equal to 150)
17 | 3760 | 2.4 | 1180 | ≤ 10 | > 10 | C=C(F)C(=O)Nc1ccc(-c2nn3ncnc(N)c3c2-c2ccc(C(=O)NC3(C(F)(F)F)CC3)c(OC)c2)cc1 [Compound 308] | C (Selectivity of FGFR1/FGFR2 less than 200 but greater than or equal to 100) | A (Selectivity of FGFR3/FGFR2 less than 150 but greater than or equal to 100)
11 | 3100 | 2.6 | 957 | ≤ 10 | 5 to 10 | C=C(F)C(=O)Nc1ccc(-c2nn3ncnc(N)c3c2-c2ccc(C(=O)NCC3(C(F)(F)F)CC3)c(OC)c2)cc1 [Compound 309] | A+ (Selectivity of FGFR1/FGFR2 greater or equal to 500) | A+ (Selectivity of FGFR3/FGFR2 greater or equal to 150)
6.1 | 1820 | 2.4 | 509 | ≤ 10 | > 10 | C=C(F)C(=O)Nc1ccc(-c2nn3ncnc(N)c3c2-c2ccc(C(=O)NC34CC(F)(C3)C4)c(OC)c2)cc1 [Compound 330] | A+ (Selectivity of FGFR1/FGFR2 greater or equal to 500) | A+ (Selectivity of FGFR3/FGFR2 greater or equal to 150)

SMILES | clearance [1] [mL/min/kg] | AUC(0-inf) [1] [ng·h/mL] | half-life [1] [h] | Cmax [1] [ng/mL] | IC50 (SNU16 cells) [nM] | IC50 (FGFR2) [nM] | Selectivity FGFR1/FGFR2 (FGFR1) | Selectivity FGFR3/FGFR2 (FGFR3)
C=C(C)C(=O)Nc1ccc(-c2c(-c3ccc(Oc4nccc(C)n4)c(F)c3)c3c(N)ncnc3n2C)cc1 [Compound 0, N-(4-(4-amino-5-(3-fluoro-4-((4-methylpyrimidin-2-yl)oxy)phenyl)-7-methyl-7H-pyrrolo[2,3-d]pyrimidin-6-yl)phenyl)methacrylamide, reference compound] | 49 | 614 | 1.5 | 244 | ≤ 10 | – | – | –
